Experimental data from PMC8291583, “Design, synthesis, and evaluation of 3,7-substituted coumarin derivatives as multifunctional Alzheimer’s disease agents” (Journal of Enzyme Inhibition and Medicinal Chemistry, 2021).

Assays:
[1] = system: MPP+-compromised SH-SY5Y neuroblastoma cells; assay type: cell-based, human; conditions: 10 µM compound, 2000 µM MPP+; for MPP+ neuroprotection (difference in percentage cell viability vs MPP+ only treated cells): 2 h pre-treatment, 24 h, SH-SY5Y; for survival rate of MPP+-treated cells: untreated control = 100%
Description: SH-SY5Y cells were seeded onto a 96-well plate in a growth medium at a density of 10,000 cells/well. Cells were pre-treated with test compounds at a concentration of 10 µM and thereafter 2000 µM MPP^+ following a 2-h incubation period. Afterwards, cells were incubated for 24 h and MTT colorimetric assay was used to measure cell viability relative to untreated control. To determine the data’s statistical significance, the One-way ANOVA Turkey’s multiple comparison test was conducted on all experimental replicates using GraphPad Prism® 8 (San Diego, USA).
The SH-SY5Y cells were pre-treated with 10 µM of the test compounds for 2 h followed by the addition of 2000 µM of MPP^+.

[2] = system: SH-SY5Y neuroblastoma cells; test: MTT cytotoxicity assay; assay type: cell-based, human; conditions: 48 h
Description: The human neuroblastoma SH-SY5Y cells were generously donated by collaborators from the Blackburn Laboratory, University of Cape Town. Cells were cultured in monolayer in Dulbecco’s Modified Eagle Medium (DMEM, Gibco, Life Technologies Corporation UK), supplemented with 10% foetal bovine serum (FBS, Gibco, Life Technologies Corporation, Paisley, UK), 100 U/ml penicillin, and 100 µg/ml streptomycin (Lonza Group Ltd., Verviers Belgium). Cultures were incubated at 37 °C in a humidified atmosphere with 5% CO2. The growth medium was replaced every 3 days and cells were sub-cultured when they attained 70 to 80% confluency using a solution of 0.25% trypsin EDTA (Lonza Group Ltd., Verviers, Belgium).
SH-SY5Y cells were plated in growth medium in the flat bottom 96 well plates at a density of approximately 7500 cells/well. The cells were allowed to adhere to the plate surface for 24 h and following this their media were replenished with fresh media containing the test compounds at 10 µM, 50 µM and 100 µM concentrations dissolved in DMSO. Vehicle control cells were treated with DMSO, at a concentration similar to that of the highest concentration of the test compounds. Following an incubation period of 48 h, 10 µl of MTT solution (5 mg/ml) was added to each well. This was further incubated for 4 h and the formazan formed was solubilised with 100 µl of DMSO. The plates were read using a BMG Labtech Omega® POLARStar plate reader spectrophotometer (Ortenberg, Germany) to determine the absorbance recorded at a wavelength of 570 nm. The percentage cell viability was calculated relative to the vehicle control using the following formula: Cellviability%=(Absorbanceoftreatedwell/Absorbanceofuntreatedwell)×100 [drawing 1]

recombinant human MAO-B = recombinant human MAO-B (Homo sapiens, UniProt P27338); assay type: biochemical; conditions: preincubation 0-60 min, inhibitor about twofold IC50
recombinant human MAO-B, sequence (P27338 whole entry): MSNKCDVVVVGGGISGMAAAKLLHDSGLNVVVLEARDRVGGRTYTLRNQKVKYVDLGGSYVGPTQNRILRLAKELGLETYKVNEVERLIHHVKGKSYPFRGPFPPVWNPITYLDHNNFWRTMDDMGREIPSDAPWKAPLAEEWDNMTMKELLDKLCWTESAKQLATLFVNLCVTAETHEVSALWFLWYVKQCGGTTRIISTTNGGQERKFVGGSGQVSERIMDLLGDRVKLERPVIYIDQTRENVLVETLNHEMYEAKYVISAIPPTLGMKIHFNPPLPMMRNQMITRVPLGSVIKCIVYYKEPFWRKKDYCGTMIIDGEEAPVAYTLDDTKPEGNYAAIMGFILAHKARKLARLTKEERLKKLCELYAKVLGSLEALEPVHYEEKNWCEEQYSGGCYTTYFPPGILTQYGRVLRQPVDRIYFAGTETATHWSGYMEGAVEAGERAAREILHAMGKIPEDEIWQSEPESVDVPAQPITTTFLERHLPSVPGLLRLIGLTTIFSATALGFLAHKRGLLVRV
Description: The concentration of inhibitor in these incubations was approximately twofold the measured IC50 value for the inhibition of the MAO-B enzyme. Potassium phosphate buffer (100 mM, pH 7.4, made isotonic with NaCl) was used as the incubation medium. A final concentration of 30 hx00B5;M kynuramine for MAO-B was then added to the preincubated enzyme preparations and the resulting 250 µl reactions were incubated at 37 °C for 15 min. The reactions were terminated with the addition of 200 µl NaOH (2 N) and a volume of 600 µl distilled water was added to each reaction. The fluorescence of the MAO-B generated 4-hydroxyquinoline in the supernatant fractions were measured using a fluorescent microplate reader at an excitation wavelength of 310 nm and an emission wavelength of 400 nm. Time-dependent graphs were plotted against the relative fluorescent unit readings (RFU).
To determine the binding mode of the studied compounds on MAO-B, the time dependency of enzyme inhibition was measured. If the compounds form a covalent or irreversible adduct with the enzyme, a time-dependent reduction of enzyme activity would be expected. […] For this purpose, the concentrations of the test compounds chosen were approximately twofold the measured IC50 values for the inhibition of the respective enzymes.

[3] = system: Aβ 25–35 treated SH-SY5Y cells; test: Amyloid-beta 25–35 induced neurotoxicity (MTT); assay type: cell-based, human; conditions: 10 µM to 100 µM compound, Aβ 25–35 20 µM, 24 h
Description: Human neuroblastoma cells (SH-SY5Y) were grown in a culture medium (DMEM/F-12) and supplemented with 10% foetal bovine serum. Prophylactically, 1% v/v of penicillin/streptomycin was added to the medium. Cells were maintained by incubation at 37 °C with 5% carbon dioxide. All experiments were performed by seeding the cells into 24-well plates. Once confluent, the cells were then pre-treated with compounds 6 and 7 (10 µM) for 1 h, followed by Aβ 25–35 addition (20 µM) and incubated for 24 h. The untreated control cells were treated with DMEM which contained DMSO and were incubated in the same manner as the treated cells. […] The level of significance was analysed using One-way ANOVA statistical analysis and expressed using the p-value.
The accumulation of extracellular Aβ plaques has been marked as one of the pathological hallmarks of neurotoxicity associated with AD[59–61] and coumarin moieties have previously shown to inhibit Aβ plaque formation and Aβ induced neurotoxicity[62]^,[63]. To further explore the neuroprotective potential of the propargylamine-containing coumarin derivatives 6 and 7, their ability to curb neurotoxicity induced by the amyloid-β (Aβ) protein was thus assessed according to the method described in the experimental section. […]

| SMILES | MPP+ neuroprotection (difference in percentage cell viability vs MPP+ only treated cells) [1] [%] | cell survival (MTT) ([2]; 50 µM) [%] | cell survival (MTT) ([2]; 100 µM) [%] | mode of MAO-B inhibition (time dependency) (recombinant human MAO-B) | survival rate of MPP+-treated cells [1] [%] | neuroprotection against Aβ 25–35 cytotoxicity [3] |
| --- | --- | --- | --- | --- | --- | --- |
| O=c1oc2cc(OCCc3ccccc3)ccc2cc1CBr [Compound 4, 3-(bromomethyl)-7-(2-phenylethoxy)-2H-1-benzopyran-2-one] | 22.11 | 65 | 7 |  |  |  |
| CCN(CC)C(=O)Oc1ccc2cc(CBr)c(=O)oc2c1 [Compound 5, 3-(bromomethyl)-2-oxo-2H-1-benzopyran-7-yl-diethylcarbamate] | 21.86 | 0 | 0 |  |  |  |
| C#CCNCc1cc2ccc(OC(=O)N(CC)CC)cc2oc1=O [Compound 7, 2-oxo-3-{[(prop-2-yn-1-yl)amino]methyl}-2H-1-benzopyran-7-yl-diethylcarbamate] | 28.19 |  |  | reversible inhibitors of MAO-B | 85 | did not show any significant ability to mitigate the cytotoxic effects |
| C#CCNCc1cc2ccc(OCCc3ccccc3)cc2oc1=O [Compound 6, 7-(2-phenylethoxy)-3-{[(prop-2-yn-1-yl)amino]methyl}-2H-1-benzopyran-2-one] | 35.96 |  |  | reversible inhibitors of MAO-B | 92 | did not show any significant ability to mitigate the cytotoxic effects |
